Experimental data taken from patent publication US20050025805A1, “Osmium compounds for reduction of adverse inflammation” (priority 2003, published 2005).
Like-named read-outs stand apart in the source and are kept apart here.

Legend:
[1] = tested on: Phorbol Myristate Stimulated Murine Peritoneal Macrophages; settings: cited from earlier work
[2] = Neta et al. J. Phys. Chem. 1980; cited from earlier work
[3] = Pulse radiolysis: decay of carbonate radical CO3.-, absorbance at 600 nm; assay type: biochemical; settings: 0.6 M carbonate
Experimental: Methods. Pulse radiolysis experiments were carried out using a 5-MeV Varian 7715 linear accelerator (0.05-1.5 μs electron pulses, 200 mA current). All measurements were performed at room temperature in a 2-cm spectrosil cell, with three light passes (optical path length 6.1 cm). The formation and decay kinetics of the CO3− radical were tracked by measuring its absorption at 600 nm using ε600=1860 M^−1cm^−1.
Carbonate radical was generated by irradiating N2O-saturated (˜25 mM) aqueous solutions containing 0.1-0.6 M sodium carbonate (pKa(HCO3^−)=10, I=0.5 M) at pH 10.0 by reaction sequence 18-20 (the species radiation yields are in parentheses): […]

[4] = Pulse radiolysis: catalysis of the decay (dismutation) of O2.-, absorbance at 260 nm; assay type: biochemical; settings: for kcat (in words): oxygenated solution; for kobs at the plateau: 10 μM O2.-, pH 7.25; for kcat at the plateau after repetitive pulsing: 20 mM formate, 2.4 mM phosphate pH 7.25
Experimental: Pulse radiolysis experiments were carried out with a Varian (Palo Alto, Calif.) 7715 linear accelerator with 5 MeV electron pulses of 1.5 μs duration. The light source of the analyzing beam was a 200 W xenon lamp. The absorption spectra were measured were at room temperature in a 2 cm Spectrosil® cell, the beam passing the cell three times, for an optical path length of 6.1 cm. The dose was 6-19.4 Gy per pulse, as determined from the absorption of the superoxide ion, using G(O2.^−)=6.1 and ε260=1940 M^−1cm^−1, in pH 7.4 O2 saturated 2.4 mM phosphate buffer, containing 20 mM formate.
OsO4 (or its product) catalyzes the decay of the superoxide ion radical. The superoxide ion radical (pKa=4.8) was formed by pulse-irradiation of oxygenated pH 7.2-7.4 buffer solutions. The solutions contained either 0.02 M formate and 2.4 mM phosphate, or 0.2 M 2-PrOH and 12 mM phosphate. In some experiment 5-10 μM diethylenetriaminepentaacetic acid (DTPA) or catalase (75 u/ml) were added. In the presence of either formate or 2-PrOH. All of the primary radicals formed by the radiation (Equation 3) are converted into O2.^− via Reactions 4-7 when formate is added, and by Reactions 4, 8-10, when 2-PrOH is added. In Equation 3 the values in parentheses are the radiation-chemical yields of the species, defined as the number of species produced per 100 eV of absorbed energy γ.

Compound: CC(=O)OC[C@H]1O[C@@H]([S-])[C@H](OC(C)=O)[C@@H](OC(C)=O)[C@@H]1OC(C)=O.CCP(CC)CC.[Au+] [2,3,4,6-tetra-O-acetyl-1-thio-β-D-glucopyranosato-S (triethylphosphine)]
- inhibition of the release of O2.- (in words) ([1]; 10 μM concentration): completely inhibited

Compound: Cc1cccc[n+]1[O-] [2-picoline N-oxide]
- k, reaction with .OH radicals [2]: 3e+09 M⁻¹ s⁻¹

Compound: Cc1ccc[n+]([O-])c1 [3-picoline N-oxide]
- k, reaction with .OH radicals [2]: 3e+09 M⁻¹ s⁻¹

Compound: Cc1cc[n+]([O-])cc1 [4-picoline N-oxide]
- shortening of the half-life of CO3.- ([3]; 2 mM, 3 μM CO3.-): about 50%
- rate constant of the reaction with CO3.- ([3]; pH 10.0): about 3×10^4 M^−1s^−1
- k, reaction with .OH radicals [2]: 3e+09 M⁻¹ s⁻¹

Compound: CN(C)CCCN1CCC2(C[CH2][Ge]([CH3])([CH3])[CH2]C2)C1 [(N,N-dimethylaminopropyl)-2-aza-8,8-dimethyl-8-germanospiro-(4,5)-decane]
- inhibition of the release of O2.- (in words) ([1]; 10 μM concentration): completely inhibited

Compound: [Os+2].c1ccc(-c2ccccn2)nc1.c1ccc(-c2ccccn2)nc1.c1ccc(-c2ccccn2)nc1 [Os(bpy)3^2+]
- kcat (in words) [4]: too low to be measured

Compound: Cc1ccnc(-c2cc(C)ccn2)c1.Cc1ccnc(-c2cc(C)ccn2)c1.Cc1ccnc(-c2cc(C)ccn2)c1.[Os+2] [Os(dimebpy)^2+]
- kcat (in words) [4]: too low to be measured

Compound: [Cl][Os]([Cl])[Cl] [OsCl3, OsCl3.6H2O]
- kobs at the plateau ([4]; 1.65 μM OsCl3, after 40 pulses): 1700 s⁻¹
- kcat at the plateau after repetitive pulsing [4]: 1.1e+09 M⁻¹ s⁻¹
- effect on rate of decay of O2.- in the first pulse ([4]; 1.65 or 3.3 μM OsCl3, first pulse): only a minor increase
- kobs at the plateau ([4]; 3.3 OsCl3, after 40 pulses): 3400 s⁻¹

Compound: [Cl][Os][Cl].c1cnc2c(c1)ccc1cccnc12.c1cnc2c(c1)ccc1cccnc12 [dichlorobis(phenathroline) osmium(II)]
- % inhibition of O2.- release ([1]; 10 μM concentration): 24±4%

Compound: [O-][n+]1ccccc1 [pyridine N-oxide]
- k, reaction with .OH radicals [2]: 3e+09 M⁻¹ s⁻¹

Compound: K2OsCl6.2H2O Cl6 [OsCl6^2−]
- kcat at the plateau after repetitive pulsing [4]: 4e+08 M⁻¹ s⁻¹

Compound: bis(bipyridyl) dichloroosmium(II)
- % inhibition of O2.- release ([1]; 10 μM concentration): 2±2%

Compound: octamminodinitrato-(μ-nitrido)-diosmium trinitrate
- % inhibition of O2.- release ([1]; 100 μM concentration): 29±6%
